“Also recorded” adds a separate entry of the source.
Tests used:
TGR5 null mice = assay: HFD-fed TGR5-null mice; assay type: in vivo; conditions: 100 mg/kg/day PO 5 weeks
Experimental: HFD-fed TGR5-null mice were treated with vehicle or fexaramine (100 mg/kg os daily for 5 weeks with HFD, n=10). (A) Ileal FXR target gene expressions (B) Serum BA levels (C) Fasting glucose levels (D) Glucose tolerance test (E) Core body temperature (F) Oxygen consumption rate (G) Carbon dioxide production (H) Gene expression in BAT (I) Body weight curve (J) Body composition by MRI (K) Insulin Tolerance Test (L) Hepatic gene expression (M) Hepatic TG levels (N) and Gene expression in soleus of TGR5 knockout mice with and without fexaramine treatment. For bar graphs, vehicle is left bar, Fex is right bar. Data represent the mean±SD. Statistical analysis was performed with the Student's t test. *p<0.05, **p<0.01.
To address this possibility, HFD-fed TGR5 null mice were chronically treated with Fex (100 mg/kg/day PO for 5 weeks). […] In particular, the anti-lipogenic effects of Fex in the liver appear to require TGR5 activation, as key hepatic lipogenic genes and liver triglyceride content were not affected by Fex treatment (FIGS. 11L, 11M).

[1] = system: serum bile acid composition; assay: Serum bile acid composition by mass spectrometry; assay type: in vivo, mice
Experimental: Mice fed a HFD for 14 weeks were maintained on a HFD and treated with vehicle or fexaramine (100 mg/kg/day per os for 5 week). Serum bile acid composition was determined by mass spectrometry. N.D not determined.

[2] = system: diet-induced obesity (DIO) mice; assay: Chronic oral treatment of diet-induced obesity (DIO) mice; assay type: in vivo; conditions: for glucose tolerance and insulin sensitivity (GTT, ITT): DIO mice, PO 5 weeks
Experimental: FIGS. 2A-2G are graphs illustrating the reduction of diet-induced obesity and improvement in metabolic homeostasis with fexaramine Mice were fed a high fat diet (HFD) for 14 weeks and then administered daily oral injections of vehicle (open boxes) or fexaramine (100 mg/kg) (solid boxes) for 5 weeks with HFD. Data represent the mean±STD. Statistical analysis was performed with the Student's t test (*p<0.05, **p<0.01).
FIG. 4A is a line graph showing the effects of fexaramine at various dosage levels on the body weight of mice fed a HFD for 14 weeks and then administered daily oral injections of vehicle or fexaramine (10, 50 or 100 mg/kg) for 5 weeks with HFD. Data represent the mean±STD. Statistical analysis was performed with the Student's t test (*p<0.05, **p<0.01).
(§1) Mice were fed HFD for 14 weeks and then administered vehicle or fexaramine (100 mg/kg) daily by oral administration for 5 weeks with HFD. Data represent the mean±STD. Statistical analysis was performed with the Student's t test (*p<0.05, **p<0.01).
The physiological effects of fexaramine in established obesity (diet-induced obesity, DIO) models were evaluated. C57BL/6J mice were fed a diet of 60% fat for 14 weeks and then treated PO with vehicle or fexaramine (100 mg/kg) for 5 weeks.

normal chow-fed mice = assay: Chronic oral treatment of normal chow-fed mice; assay type: in vivo
Experimental: FIGS. 3A-3D are line graphs and a bar graph showing the effects of fexaramine administration in normal chow-fed mice. The mice were treated with vehicle (left bar) or fexaramine (100 mg/kg) (right bar) via PO for 5 weeks. Data represent the mean±STD. Statistical analysis as performed with the Student's t test (*p<0.05, **p<0.01).
To investigate the physiological effects of intestinal FXR activation by fexaramine, mice were subjected to chronic fexaramine (100 mg/kg Fex) PO treatment for 5 weeks.

[3] = system: gene and protein expression in BAT, ileum, liver and adipose tissues; assay: Tissue gene and protein expression in treated DIO mice; assay type: in vivo
Experimental: as §1
FIGS. 7A-7H show a comparative expression chart and bar charts illustrating that fexaramine increased endogenous FGF15 signaling and changes in BA composition. Mice were fed HFD for 14 weeks and then administered daily oral injections of vehicle or fexaramine (100 mg/kg) for 5 weeks with HFD. In the bar graphs, open bars represent vehicle treatment and solid bars represent fexaramine treatment, and data represent the mean±STD. Statistical analysis was performed with the Student's t test (*p<0.05, **p<0.01).
Mice were fed on HFD for 14 weeks and subsequently subjected to daily PO injection of vehicle or fexaramine (100 mg/kg) for 5 weeks with HFD. In the bar graphs, open bars are vehicle, solid bars of fexaramine, and data represent the mean±STD. Statistical analysis was performed with the Student's t test (*p<0.05, **p<0.01).
Mice were fed HFD for 14 weeks and then subjected to daily PO injection of vehicle (open bar in bar graphs) or fexaramine (100 mg/kg) (solid bar in bar graphs) for 5 weeks with HFD.

SMILES: COC(=O)/C=C/c1cccc(N(Cc2ccc(-c3ccc(N(C)C)cc3)cc2)C(=O)C2CCCCC2)c1 [fexaramine]
- FXR target genes in the ileum of TGR5 null mice (TGR5 null mice): induced multiple FXR target genes
- core body temperature and metabolic rate in TGR5 null mice (TGR5 null mice): somewhat blunted increases
- fasting glucose levels and glucose tolerance in TGR5 null mice (TGR5 null mice): moderate improvements
- key hepatic lipogenic genes and liver triglyceride content in TGR5 null mice (TGR5 null mice): not affected
- serum BA levels in TGR5 null mice (TGR5 null mice): lowered serum BA levels
- weight gain or insulin sensitivity in TGR5 null mice (TGR5 null mice): no significant changes
- bile acid pool size [1]: reducing the bile acid pool size
- fraction of lithocholic acid among circulating bile acids [1]: increasing the fraction of the secondary bile acid, lithocholic acid
- fraction of taurocholic acid among circulating bile acids [1]: decreasing the fraction of taurocholic acid
- ratio of unconjugated to conjugated cholic acid ([1]; 100 mg/kg PO 5 weeks): remarkably increased
- ambulatory counts ([2]; 100 mg/kg PO 5 weeks): more active than control mice
- intestinal toxicity (histology of ileum and colon) ([2]; 100 mg/kg PO 5 weeks): no signs of intestinal toxicity
- overall fat mass (MRI) ([2]; 100 mg/kg PO 5 weeks): reduced overall fat mass
- respiratory exchange ratio ([2]; 100 mg/kg PO 5 weeks): No changes
- serum lactate levels ([2]; 100 mg/kg PO 5 weeks): significantly decreased
- serum levels of inflammatory cytokines TNFα, IL-1α, IL-1β, IL-17 and MCP-1 ([2]; 100 mg/kg PO 5 weeks): markedly decreased
- wet weights of subcutaneous (inguinal) and visceral (gonadal and mesenteric) adipose depots ([2]; 100 mg/kg PO 5 weeks): significant reductions
- serum lactate levels ([2]; 100 mg/kg PO 5 weeks, listed as Fex): significantly reduced
- prevention of weight gain, dose dependence ([2]; 10, 50 or 100 mg/kg PO 5 weeks): dose-dependent manner
- glucose tolerance and insulin sensitivity (GTT, ITT) [2]: improved glucose clearance; also recorded: improved insulin sensitivity
- glucose tolerance and insulin sensitivity (GTT, ITT) ([2]; listed as Fex): dose-dependent improvements
- weight gain ([2]; HFD 14 weeks, then 100 mg/kg PO 5 weeks): prevented weight gain
- cross-sectional area of adipocytes in visceral depots (gonadal, mesenteric) ([2]; chronic treatment): markedly reduced
- weight gain at the highest dose ([2]; highest dose): almost completely abrogated
- accumulation of lipid vesicles in brown adipose tissue (BAT) ([2]; histology): markedly reduced
- hepatic triglycerides ([2]; liver): marked decrease
- lipid droplets in liver tissue (histology) ([2]; liver): reduction in lipid droplets
- serum alanine aminotransferase (ALT) levels ([2]; serum): decreased
- glucose, insulin, leptin, cholesterol and resistin levels ([2]; serum, 100 mg/kg PO 5 weeks): reduced glucose, insulin, leptin, cholesterol, and resistin levels
- food intake ([2]; versus vehicle-treated control mice): not attributable to difference in food intake
- carbon dioxide production (VCO2) ([2]; weight-matched DIO mice): exhaled more carbon dioxide
- oxygen consumption (VO2) ([2]; weight-matched DIO mice): consistently higher oxygen consumption
- glucose homeostasis in normal chow-fed mice (normal chow-fed mice; across a range of doses): no effects observed
- weight gain, basal metabolic activity and glucose tolerance (normal chow-fed mice; chow-fed, 100 mg/kg PO 5 weeks): indistinguishable from vehicle-treated mice
- D102, downstream target of TGR5, in brown adipose tissue ([3]; BAT): induce
- PKA activity ([3]; BAT): increased PKA activity
- expression of ERRy, PGC-1α, PGC-1β and target genes in BAT ([3]; BAT): induction
- phosphorylation level of p38 ([3]; BAT): increased the phosphorylation level of p38
- FGF15 expression in intestine ([3]; RNA-Seq, ileal FXR target genes): dramatically up-regulated
- OXPHOS activity, transcriptional changes in inguinal, gonadal and brown adipose depots ([3]; RNA-sequencing): selectively enhance OXPHOS activity only in BAT
- HSL phosphorylation and serum levels of free fatty acids ([3]; adipose depots, serum): pronounced increase
- serum catecholamine levels and β3-adrenergic receptor expression ([3]; chronic treatment): increased serum catecholamine levels and β3-adrenergic receptor expression
- S6K phosphorylation (mTORC1 pathway) ([3]; gonadal WAT): reduced S6K phosphorylation
- levels of IKK-ε and TANK-binding kinase 1 (TBK1) ([3]; gonadal adipose tissue): reduced levels
- expression of brown fat-like signature genes ([3]; inguinal adipose tissue): increased the expression
- respiratory capacity in the stromal vascular fraction ([3]; inguinal adipose tissue): increased respiratory capacity
- abundance of multi-locular, UCP1-expressing adipocytes ([3]; inguinal adipose tissue, immunohistochemistry): substantial increase
- expression of mucosal defense genes Occludin and Muc2 ([3]; intestine): increased expression
- expression of CYP8B1 and CYP27A1 ([3]; liver): not affected
- expression of liver FXR target genes SHP and BSEP ([3]; liver): not altered
- hepatic CYP7A1 expression, mRNA and protein level ([3]; liver): significantly repressed
- hepatic expression of gluconeogenic and lipogenic genes ([3]; liver): reduced hepatic expression
- circulating FGF15 ([3]; serum): increase in circulating FGF15

Source: US10077268B2, “FXR agonists and methods for making and using” (Salk Institute for Biological Studies, priority 2014, dated 2018)
